In ChEMBL document CHEMBL2074031, “Inhibitory effects of CYP3A4 substrates and their metabolites on P-glycoprotein-mediated transport” (Eur J Pharm Sci, 2001):
pIC50: −log10 of the molar value.

Tests used:
Type in all cases: functional, cell-based
[1] = target: T1, ATP-dependent translocase ABCB1 (Homo sapiens, UniProt P08183); test: TP_TRANSPORTER: inhibition of Digoxin transepithelial transport (basal to apical)(Digoxin: 0.025 uM, 6beta-hydroxytestosterone: 50 uM) in MDR1-expressing LLC-PK1 cells; details: pig, llc-pk1, 50 µM
T1 sequence (P08183 whole entry): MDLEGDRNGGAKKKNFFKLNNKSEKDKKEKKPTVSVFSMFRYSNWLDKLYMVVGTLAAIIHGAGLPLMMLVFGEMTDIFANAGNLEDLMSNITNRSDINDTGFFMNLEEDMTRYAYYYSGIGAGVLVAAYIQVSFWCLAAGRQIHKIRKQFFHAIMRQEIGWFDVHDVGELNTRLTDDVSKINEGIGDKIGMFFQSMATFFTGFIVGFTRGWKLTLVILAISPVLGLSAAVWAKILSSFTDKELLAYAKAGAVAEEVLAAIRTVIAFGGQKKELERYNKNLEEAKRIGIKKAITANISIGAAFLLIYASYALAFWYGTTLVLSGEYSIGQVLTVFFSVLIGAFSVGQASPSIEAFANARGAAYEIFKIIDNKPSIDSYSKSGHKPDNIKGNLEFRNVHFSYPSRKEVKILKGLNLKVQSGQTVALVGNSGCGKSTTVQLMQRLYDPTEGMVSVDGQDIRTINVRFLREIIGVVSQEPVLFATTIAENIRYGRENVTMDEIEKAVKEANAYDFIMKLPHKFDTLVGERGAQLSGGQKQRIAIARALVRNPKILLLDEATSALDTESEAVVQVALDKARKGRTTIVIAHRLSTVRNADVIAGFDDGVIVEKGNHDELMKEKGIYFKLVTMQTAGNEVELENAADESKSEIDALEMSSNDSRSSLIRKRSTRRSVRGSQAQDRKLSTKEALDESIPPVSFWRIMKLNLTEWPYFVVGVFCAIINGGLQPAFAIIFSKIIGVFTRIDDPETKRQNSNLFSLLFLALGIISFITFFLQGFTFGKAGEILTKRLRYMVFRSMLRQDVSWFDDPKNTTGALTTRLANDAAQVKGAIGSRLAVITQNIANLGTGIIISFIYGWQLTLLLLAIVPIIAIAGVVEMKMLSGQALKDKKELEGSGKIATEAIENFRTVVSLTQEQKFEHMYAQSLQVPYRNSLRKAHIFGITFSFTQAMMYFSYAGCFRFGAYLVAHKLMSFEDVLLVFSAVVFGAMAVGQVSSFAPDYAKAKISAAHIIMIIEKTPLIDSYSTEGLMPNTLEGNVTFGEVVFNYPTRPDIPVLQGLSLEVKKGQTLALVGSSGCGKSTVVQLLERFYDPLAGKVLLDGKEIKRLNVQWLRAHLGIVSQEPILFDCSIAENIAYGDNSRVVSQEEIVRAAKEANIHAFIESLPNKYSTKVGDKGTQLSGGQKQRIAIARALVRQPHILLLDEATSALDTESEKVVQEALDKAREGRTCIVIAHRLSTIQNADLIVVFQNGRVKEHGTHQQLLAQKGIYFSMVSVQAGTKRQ

[2] = target: T1, ATP-dependent translocase ABCB1; test: TP_TRANSPORTER: inhibition of Daunorubicin transepithelial transport (basal to apical)(Daunorubicin: 0.035 uM, 6beta-hydroxytestosterone: 50 uM) in MDR1-expressing LLC-PK1 cells; details: pig, llc-pk1, 50 µM
[3] = target: T1, ATP-dependent translocase ABCB1; test: TP_TRANSPORTER: inhibition of Digoxin transepithelial transport (basal to apical)(Digoxin: 0.025 uM, Midazolam: 50 uM) in MDR1-expressing LLC-PK1 cells; details: pig, llc-pk1, 50 µM
[4] = target: T1, ATP-dependent translocase ABCB1; test: TP_TRANSPORTER: inhibition of Daunorubicin transepithelial transport (basal to apical)(Daunorubicin: 0.035 uM, Midazolam: 50 uM) in MDR1-expressing LLC-PK1 cells; details: pig, llc-pk1, 50 µM
[5] = target: T1, ATP-dependent translocase ABCB1; test: TP_TRANSPORTER: inhibition of Daunorubicin transepithelial transport (basal to apical)(Daunorubicin: 0.035 uM, 4-hydroxymidazolam: 50 uM) in MDR1-expressing LLC-PK1 cells; details: pig, llc-pk1, 50 µM
[6] = target: T1, ATP-dependent translocase ABCB1; test: TP_TRANSPORTER: inhibition of Daunorubicin transepithelial transport (basal to apical) (Daunorubicin: 0.035 uM, Nifedipine: 50 uM) in MDR1-expressing LLC-PK1 cells; details: pig, llc-pk1, 50 µM
[7] = target: T1, ATP-dependent translocase ABCB1; test: TP_TRANSPORTER: inhibition of Digoxin transepithelial transport (basal to apical)(Digoxin: 0.025 uM, Testosterone: 50 uM) in MDR1-expressing LLC-PK1 cells; details: pig, llc-pk1, 50 µM
[8] = target: T1, ATP-dependent translocase ABCB1; test: TP_TRANSPORTER: inhibition of Daunorubicin transepithelial transport (basal to apical)(Daunorubicin: 0.035 uM, Testosterone: 50 uM) in MDR1-expressing LLC-PK1 cells; details: pig, llc-pk1, 50 µM
[9] = target: T1, ATP-dependent translocase ABCB1; test: TP_TRANSPORTER: inhibition of Digoxin transepithelial transport (basal to apical)(Digoxin: 0.025 uM, 1'-hydroxymidazolam: 50 uM) in MDR1-expressing LLC-PK1 cells; details: pig, llc-pk1, 50 µM
[10] = target: T1, ATP-dependent translocase ABCB1; test: TP_TRANSPORTER: inhibition of Daunorubicin transepithelial transport (basal to apical)(Daunorubicin: 0.035 uM, 1'-hydroxymidazolam: 50 uM) in MDR1-expressing LLC-PK1 cells; details: pig, llc-pk1, 50 µM
[11] = target: T1, ATP-dependent translocase ABCB1; test: TP_TRANSPORTER: inhibition of Digoxin transepithelial transport (basal to apical) (Digoxin: 0.025 uM) in MDR1-expressing LLC-PK1 cells
[12] = target: T1, ATP-dependent translocase ABCB1; test: TP_TRANSPORTER: inhibition of Daunorubicin transepithelial transport (basal to apical) (Daunorubicin: 0.035 uM) in MDR1-expressing LLC-PK1 cells
[13] = target: T1, ATP-dependent translocase ABCB1; test: TP_TRANSPORTER: inhibition of Digoxin transepithelial transport (basal to apical)(Digoxin: 0.025 uM, 6-hydroxyazelastine: 50 uM) in MDR1-expressing LLC-PK1 cells; details: pig, llc-pk1, 50 µM
[14] = target: T1, ATP-dependent translocase ABCB1; test: TP_TRANSPORTER: inhibition of Daunorubicin transepithelial transport (basal to apical)(Daunorubicin: 0.035 uM, 6-hydroxyazelastine: 50 uM) in MDR1-expressing LLC-PK1 cells; details: pig, llc-pk1, 50 µM
[15] = target: T1, ATP-dependent translocase ABCB1; test: TP_TRANSPORTER: inhibition of Digoxin transepithelial transport (basal to apical) (Digoxin: 0.025 uM, Oxidized nifedipine: 50 uM) in MDR1-expressing LLC-PK1 cells; details: pig, llc-pk1, 50 µM
[16] = target: T1, ATP-dependent translocase ABCB1; test: TP_TRANSPORTER: inhibition of Daunorubicin transepithelial transport (basal to apical) (Daunorubicin: 0.035 uM, Oxidized nifedipine: 50 uM) in MDR1-expressing LLC-PK1 cells; details: pig, llc-pk1, 50 µM

## C[C@]12CC[C@H]3[C@@H](C[C@@H](O)C4=CC(=O)CC[C@@]43C)[C@@H]1CC[C@@H]2O [6beta-hydroxytestosterone]
[1]
  Activity: is not an inhibitor [-]
[2]
  Activity: is not an inhibitor [-]

## Cc1ncc2n1-c1ccc(Cl)cc1C(c1ccccc1F)=NC2 [MIDAZOLAM]
[3]
  Activity: is not an inhibitor [-]
[4]
  Activity: is not an inhibitor [-]

## Cc1ncc2n1-c1ccc(Cl)cc1C(c1ccccc1F)=NC2O (stereo not given) [4-Hydroxymidazolam]
[5]
  Activity: is not an inhibitor [-]

## COC(=O)C1=C(C)NC(C)=C(C(=O)OC)C1c1ccccc1[N+](=O)[O-] [NIFEDIPINE]
[6]
  Activity: is not an inhibitor [-]

## C[C@]12CC[C@H]3[C@@H](CCC4=CC(=O)CC[C@@]43C)[C@@H]1CC[C@@H]2O [TESTOSTERONE]
[7]
  Activity: is not an inhibitor [-]
[8]
  Activity: is not an inhibitor [-]

## OCc1ncc2n1-c1ccc(Cl)cc1C(c1ccccc1F)=NC2 [ALPHA-HYDROXY-MIDAZOLAM]
[9]
  Activity: is not an inhibitor [-]
[10]
  Activity: is not an inhibitor [-]

## O=c1c2ccccc2c(Cc2ccc(Cl)cc2)nn1C1CCCNCC1 (stereo not given) [DESMETHYLAZELASTINE]
[11]
  pIC50: 4.38
[12]
  pIC50: 4.93

## CN1CCCC(N2NC(Cc3ccc(Cl)cc3)c3cc(O)ccc3C2=O)CC1 (stereo not given) [6-hydroxyazelastine]
[13]
  Activity: is not an inhibitor [-]
[14]
  Activity: is not an inhibitor [-]

## CCCCc1oc2ccccc2c1C(=O)c1cc(I)c(OCCNCC)c(I)c1 [DESETHYLAMIODARONE]
[11]
  pIC50: 4.60
[12]
  pIC50: 4.81

## COC(=O)c1c(C)nc(C)c(C(=O)OC)c1-c1ccccc1[N+](=O)[O-]
[15]
  Activity: is not an inhibitor [-]
[16]
  Activity: is not an inhibitor [-]

## CN1CCCC(n2nc(Cc3ccc(Cl)cc3)c3ccccc3c2=O)CC1 (stereo not given) [AZELASTINE]
[11]
  pIC50: 4.52
[12]
  pIC50: 4.80
